Laboratory results reported in patent EP0479899B1, “VASODILATORY AND IMMUNE SUPPRESSANT PEPTIDES” (THE PRESIDENT AND FELLOWS OF HARVARD COLLEGE, priority 1989, dated 1991).
Where no end group is shown, it is not given here.

Tested on: Human macrophages
Assay: H₂O₂ production by IFN-γ activated macrophages (scopoletin fluorometric assay)
Format: cell-based
Details: 3 hrs preincubation, up to 1000 ng/ml (2.5 X 10⁻⁷M); IFN-γ 200 units/ml; 3 days

Calcitonin: neuropeptide derived from the same gene as CGRP, available commercially (CGNLSTCMLGTYTQDFNKFHTFPQTAIGVGAP; ends and bridges not checked; cysteine pairing not given here; UniProt P01258 85-116, looked up)
inhibition of H₂O₂ production by macrophages: inhibit H₂O₂ production by macrophages to a degree similar to that seen with CGRP
